Data as given in the METLIN SMRT retention time set (Domingo-Almenara et al. 2019).

Experiment: gradient 5% acetonitrile 3 min, to 50% in 2 min, to 85% in 15 min, held 3 min, 100 µL/min
Details: column: Zorbax Extend-C18 2.1 x 50 mm; eluents: water / acetonitrile, 0.1% formic acid
Method in brief: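 Mixtures of ~100 pure standards were chromatographed on a Zorbax Extend-C18 column (2.1 × 50 mm, 1.8 μm) at 100 μL/min using water and acetonitrile, each with 0.1% formic acid. Detection used a quadrupole time-of-flight mass spectrometer in positive and negative ionization mode, and data collection spanned 3 months. Retention time was obtained from adduct peaks picked computationally and each checked manually.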

RP-LC retention time | SMILES
806 s | O=C(Cc1nnc(-c2ccc3ncccc3c2)o1)Nc1ccc(OC(F)(F)F)cc1
953 s | CCCCC(=O)Nc1nc(-c2ccc3c(c2)N(C)C(=O)C(C)O3)cs1 (centres undefined)
1190 s | CCOC(=O)c1noc2nc(C)nc(N3CCN(c4ccc(Cl)cc4)CC3)c12
645 s | Cc1oc(-c2[nH]ncc2C(=O)N2CCOCC2)cc1S(=O)(=O)NC1CCCC1
744 s | O=C(Cc1csc2nc(-c3ccccc3)cn12)Nc1ccc2c(c1)OCCO2
826 s | Cc1nc(-c2csc(S(=O)(=O)N3CCC(C(=O)NC4CCCC4)CC3)c2)no1
647 s | COc1cc(C2C(C(=O)N3CCCCC3)=C(C)NC3=C2C(=O)CCC3)ccc1OC(C)=O (centres undefined)
883 s | COc1ccc2[nH]cc(CCNC(=O)c3cc(Cl)ccc3OC)c2c1
677 s | Cc1ccn2c(NC(=O)c3cccc([N+](=O)[O-])c3C)c(-c3ccccc3)nc2c1
679 s | O=C(Cc1nnc(-c2cnccn2)o1)Nc1cccc(F)c1
814 s | COc1cccc(Cn2nc3ccc(S(=O)(=O)N4CCCC4)cn3c2=O)c1
618 s | Cc1ccc2cc(CCC(=O)NC(C)c3cn(C)nc3C)c(=O)[nH]c2c1 (centres undefined)
742 s | Cc1nn2c(CNC(=O)c3ccoc3)c(-c3ccccc3)nc2s1
616 s | O=C(Cn1cnc2ccccc2c1=O)N1CCC(Cn2cccn2)CC1
865 s | O=C(Cn1ccn2nc(-c3ccc(F)cc3)c(CO)c2c1=O)Nc1ccc(F)c(F)c1
670 s | O=C(Cn1c(=O)oc2ccccc21)N1CCN(S(=O)(=O)C2CC2)CC1
916 s | CC(C)c1ccc(-c2cc3c4nn(CC(=O)N5CCCC5)c(=O)n4ccn3n2)cc1
762 s | O=C(NCC1CCCO1)c1ccccc1NC(=O)C1CCN(C(=O)c2ccc(F)cc2)CC1 (centres undefined)
584 s | Cc1cccc2nnc(N3CCN(C(=O)c4cccc(Cl)c4)CC3)n12
599 s | NCCC1CCN(C(=O)Nc2cc(F)cc(F)c2)CC1
873 s | CC(NC(=O)CCCn1c2ccccc2c2cnn(C)c(=O)c21)c1ccccc1 (centres undefined)
814 s | CCc1nnc(-c2cccc(OCC(=O)N3CCCc4ccccc43)c2)o1

RP-LC retention time | SMILES
1050 s | Cc1ccccc1C(=O)Nc1nc(-c2ccc3c(c2)N(C)C(=O)CO3)c(C)s1
806 s | CCCn1cc(CCNC(=O)Nc2ccc(F)cc2F)c2cccnc21
764 s | CC(C)NC(=O)c1ccc(Nc2c(-c3ccc(Cl)cc3)nc3cnccn23)cc1
992 s | Cc1cccc(Nc2nc(-c3ccc(F)c(C)c3)cs2)n1
949 s | CCc1nc(-n2cccc2)sc1C(=O)Nc1ccc(C)cc1
688 s | O=C(O)c1cn2ccnc(-c3ccc(F)cc3)c2n1
1090 s | Brc1cccc(-c2noc(Cc3nnc(-c4ccccc4)o3)n2)c1
922 s | O=C(NCCc1c[nH]c2ccc(Cl)cc12)c1ccc(-n2nnc3cccnc32)cc1
887 s | O=C(CSc1ccc(F)cc1)NCC(O)(c1ccccc1)C(F)(F)F (centres undefined)
630 s | CN1CCN(CCCNC(=O)C2CCN(C(=O)c3ccc(-n4ccc5ccccc54)s3)CC2)CC1
665 s | CCNc1cc(N2CCC(CCC(=O)Nc3ccc(OC)cc3OC)CC2)ncn1
680 s | COc1cccc(N2CCN(C(=O)c3cn(-c4ccc(NC(C)=O)cn4)cn3)CC2)c1
834 s | Cc1ccc(CNC(=O)c2ccc(CN3CCN(C4CCCC4)C(=O)C3=O)cc2)cc1C
1020 s | CCOc1ccccc1NC(=O)C(=O)NCCc1ccsc1
828 s | Cc1coc2c(C)c3oc(=O)c(CCC(=O)NCCc4ccc(S(N)(=O)=O)cc4)c(C)c3cc12
631 s | Cc1cccc(C(=O)NCC(=O)Nc2nc3ccccc3[nH]2)c1
896 s | Cc1ccc(C)c(NC(=O)Cc2csc3nc(-c4ccc(C)c(C)c4)cn23)c1
743 s | COc1ccc(CNC(=O)c2c(C)sc3ccn(C)c(=O)c23)c(OC)c1
638 s | COCc1nc2cccnc2n1C1CCN(C(=O)Nc2ccc(OC)cc2OC)CC1
934 s | CCCNC(=O)c1cn(-c2cc(-c3nc(C(C)(C)C)no3)ccn2)cn1
669 s | CC(C)NCc1ccc(-c2ccc(Cl)cc2)o1
951 s | COc1ccc(C(=O)Cn2nc3n(CC(C)C)c(=O)c4ccccc4n3c2=O)cc1OC

RP-LC retention time | SMILES
1020 s | C[C@H]1CN(C(=O)Cc2ccccc2F)C[C@@H]1c1nc(-c2ccccc2)no1
583 s | Cc1cc(N2CCN(C)CC2)nc2ccc(NC(=S)N(C)C3CCCCC3)cc12
626 s | COc1ccccc1-c1ccc(N2CCN(C(=O)c3ccccc3Cl)CC2)nn1
609 s | Cc1onc(-c2c(Cl)cccc2Cl)c1C(=O)N1CCN(C)CC1
636 s | COc1cccc(CNC(=O)CN2CCc3[nH]c4c(C)c(Cl)ccc4c(=O)c3C2)c1
938 s | Cc1ccc(NC(=O)Cn2nc(N3CCCC3)c3ccccc3c2=O)cc1
747 s | Cc1ccc(NC(=O)Nc2ccc3nncn3c2)c(C)c1
1040 s | COc1ccc(S(=O)(=O)N2CCCC(C(=O)Nc3ccccc3Br)C2)cc1C (centres undefined)
705 s | CC[C@H](C)NC(=O)Cc1nnc(-c2ccccc2)o1
620 s | CCOC(=O)C1CCN(C(=O)c2csc(Nc3ccc(S(C)(=O)=O)cc3)n2)CC1
902 s | CC(NC(=O)CN1C(=O)C2CCCCN2c2ccc(S(=O)(=O)N(C)C)cc21)c1ccccc1 (centres undefined)
1030 s | Cc1noc(C2CN(C(=O)Nc3cccc(F)c3C)CC23CCOCC3)n1 (centres undefined)
1010 s | COc1ccc(N2CC(c3noc(-c4cc(C)cc(C)c4)n3)CC2=O)cc1OC (centres undefined)
946 s | CCOC(=O)c1[nH]c(C)c(CN(Cc2ccccc2)C(=O)c2ccco2)c1C
1240 s | Cc1ccccc1-c1nc(-c2ccc(S(=O)(=O)N3CCCC3)cc2)no1
693 s | CCC(=O)N1CCc2cc(N3CC(C(=O)Nc4cccc(C)c4)CC3=O)ccc21 (centres undefined)
600 s | Cc1ccc2nc(CNC(=O)Cn3nc(C(=O)N4CCCC4)c4ccccc43)[nH]c2c1
855 s | COc1ccc(N2CCN(c3ccc4cc(S(=O)(=O)N5CCCC5)ccc4n3)CC2)cc1
926 s | O=C(Nc1ccc(F)cc1)N1CCc2nc(-c3ccc(F)cc3)ncc2C1
685 s | O=C1CN(S(=O)(=O)c2cccc3cccnc23)C2(CCCC2)CN1
699 s | COc1cc(C(=O)N2CCN(c3cc(-c4cccs4)[nH]n3)CC2)cc(OC)c1OC
1010 s | C(=C/c1nc2ccccc2o1)/c1ccc2c(c1)OCO2

RP-LC retention time | SMILES
700 s | CCNC(=O)C1CCCN(c2nc3ncn(CC(=O)Nc4ccccc4OCC)c(=O)c3s2)C1 (centres undefined)
848 s | COc1ccccc1-c1noc(C2CCCN2C(=O)Nc2ccccc2)n1 (centres undefined)
929 s | CCOCCCNC(=O)C(C)n1c(=O)c(C(F)(F)F)nc2ccccc21 (centres undefined)
567 s | COc1cn(CC(=O)Nc2cccc([N+](=O)[O-])c2)c(CN2CCC(C)CC2)cc1=O
708 s | O=C(NCc1ccccc1Cl)c1c[nH]c2ncccc12
908 s | CN(C(=O)c1cc2c(=O)oc3ccccc3c2n1C)C1CCCCC1
1020 s | Cc1[nH]c(=O)nc(N/N=C/c2ccc(Cl)cc2)c1C(=O)Nc1ccc(Cl)cc1
579 s | COc1ccc(-c2nc(NCCCN3CCCCC3C)c3ccccc3n2)cc1 (centres undefined)
726 s | CCCC(=O)Nc1ccc(-n2cnc(C(=O)NC3CCCC3)c2)nc1
1060 s | COc1cccc(Nc2n[nH]nc2C(=O)Nc2ccccc2Br)c1
675 s | Cn1cnc(S(=O)(=O)N2CCC(C(=O)Nc3ccccc3)CC2)c1
1000 s | CCS(=O)(=O)c1ccc2c(c1)N(Cc1nc(-c3ccc(C)c(C)c3)no1)C(=O)CO2
854 s | COc1cc(NC(=O)C2CCCN(c3cc(=O)n(C)c(=O)n3C)C2)cc(OC)c1OC (centres undefined)
825 s | CC1(C)CS(=O)(=O)N(c2ccc(C(=O)NCCc3c[nH]c4ccccc34)cc2)C1=O
824 s | O=C(O)c1nnn(-c2ccc(C(F)(F)F)cc2)c1C(F)(F)F
1100 s | CCc1ccc(S(=O)(=O)N2CC=C(c3cn(C)c4ncccc34)CC2)cc1
740 s | O=C1[C@H]2CN(Cc3ccc(Cl)cc3)C[C@H]2C(=O)N1CCN1CCc2ccccc2C1
694 s | Cc1noc(C2CN(C(=O)Nc3ccccc3F)CC23CCOCC3)n1 (centres undefined)
710 s | CCOc1ccc(NC(=O)c2oc3ccc(F)cc3c2C)c2cccnc12
637 s | CCN(CC)CCNC(=O)c1cc(S(=O)(=O)N2CCCCC2)ccc1Cl
1080 s | COCC(C)NC(=O)c1cc2c(s1)N(CC(C)C)CCCC2 (centres undefined)
588 s | CN1CCN(C(=O)c2ccc(-c3ccc(Br)cc3)o2)CC1

SMILES | RP-LC retention time
CCCN1CCc2cccc3c2[C@H]1Cc1ccc(O)c(O)c1-3 | 652 s
